# Reference: patent publication US20040097565A1, “Analgesic and antiinflammatory drugs” (priority 2001, published 2004)
# Marks after values point to notes of the source that are not given here.
# Legend:
# [1] = tested on: acetic acid writhing in ICR strain male mice; experiment: Acetic acid writhing method (analgesic action); format: in vivo, mouse; conditions: 30 mg/kg oral, 30 minutes before 0.6% acetic acid i.p., counted for 20 minutes
# Experimental: Acetic Acid Writhing Method
# Method: ICR strain male mice (5 weeks old, Nihon Clea) were used at 10 animals per group, and a specimen [compound A: 2-ethocy-1-[[2′-(5-oxo-2,5-dihydro-1,2,4-oxadiazol-3-yl)biphenyl-4-yl]methyl]-1H-benzimidazole-7-carboxylic acid] was orally administered (0.2 ml/10 g). After 30 minutes, a 0.6% acetic acid solution was intraperitoneally injected (0.1 ml/10 g) and, immediately, mice were placed into a transparent acryl resin observation cage, a time of writhing and stretching induced for 20 minutes therefrom was counted, and an inhibition rate (%) was calculated from average times of a control group and a specimen administration group.
# [2] = tested on: carrageenin edema, right rear limb plantar part of SD strain male rats; experiment: Carrageenin edema method (antiinflammatory action); format: in vivo, rat; conditions: 30 mg/kg oral, 1 hour before carrageenin, limb volume 3 hours after, relative to control
# Experimental: Method: SD strain male rats (6 weeks old, Nihon Clea) were used at 6 animals per group. The carrageenin edema method was performed according to a method of Winter et al. (Proc. Soc. exp. Biol. Med., 111, 544-547, 1962). After a volume of a right rear limb plantar part was measured, a specimen [compound A: 2-ethoxy-1-[[2′-(5-oxo-2,5-dihydro-1,2,4-oxadiazol-3-yl)biphenyl-4-yl]methyl]-1H benzimidazole-7-carboxylic acid] was orally administered (1 ml/100 g), and water was additionally added to a total amount of 5 ml/rat. After one hour, 0.05 ml of a 1% carrageenin physiological saline solution was subcutaneously injected to induce edema. Whereby, a volume of a right rear limb plantar part was measured after 3 hours. The effect of a specimen was obtained by a difference of a limb volume between before carrageenin injection and after 3 hours, and calculating an inhibition rate (%) relative to a control group.
# [3] = tested on: pain threshold at right rear limb plantar part of SHRSP strain male rats; experiment: Pain threshold improving action in SHRSP rat (Randall & Selitto's method); format: in vivo; conditions: for Pain threshold (g) before administration of compound A: baseline before oral administration
# Experimental: Pain Threshold Improving Action in SHRSP Rat (Easily Cerebral Apoplexy Developing Spontaneous Hypertension Rat)
# SHRSP strain male rats (27 weeks old, Nihon Clea, 6 animals per group) were used. […] Measurement of a pain threshold value was performed according to a Randall & Selitto's method (Arch. Int. Pharmacodyn. Ther. 111, 409-419, 1957). Immediately after therefrom, a compound A [2-ethoxy-1-[[2′-(5-oxo-2,5-dihydro-1,2,4-oxadoazol-3-yl)biphenyl-4-yl]methyl]-1H-benzimidazole-7-carboxylic acid] was orally administered (0.5 ml/100 g, b.w.) and, one hour after, a pain threshold value was measured. Only a solvent was orally administered to a control group. Regarding the effect of a specimen, drug efficacy assessment was performed by threshold pressure of a control group and a specimen administration group.
smiles,measurement,setting,value
"CCOc1nc2cccc(C(=O)O)c2n1Cc1ccc(-c2ccccc2-c2nc(=O)o[nH]2)cc1 [Compound A, 2-Ethoxy-1-[[2′-(5-oxo-2,5-dihydro-1,2,4-oxadiazol-3-yl)biphenyl-4-yl]methyl]-1H-benzimidazole-7-carboxylic acid]",Inhibition rate (%) of writhing and stretching,[1],52* %
same,Inhibition rate (%) of carrageenin edema,[2],34* %
same,Pain threshold (g) before administration of compound A,[3]; 1 mg/kg group,210 g
same,Pain threshold (g) 1 hour after administration of compound A,[3]; 1 mg/kg oral,277* g
same,Pain threshold (g) before administration of compound A,[3]; 3 mg/kg group,213 g
same,Pain threshold (g) 1 hour after administration of compound A,[3]; 3 mg/kg oral,352* g
same,Pain threshold (g) before administration of compound A,[3]; 10 mg/kg group,212 g
same,Pain threshold (g) 1 hour after administration of compound A,[3]; 10 mg/kg oral,430* g
same,Pain threshold (g) before administration of compound A,[3]; 30 mg/kg group,214 g
same,Pain threshold (g) 1 hour after administration of compound A,[3]; 30 mg/kg oral,470* g
